This note sets out measurements from patent US8604061B2, “2-aminooxazolines as TAAR1 ligands” (Hoffmann-La Roche Inc., priority 2007, dated 2013).

The structures appear in SMILES notation.

This experiment has as its target TAAR1 (Mus musculus, UniProt Q923Y8). In words: TAAR1 radioligand binding, membranes of stably transfected HEK293 cells (mouse). The note with it: mouse/rat; cell not marked 'rat'; radioligand [3H]-rac-2-(1,2,3,4-tetrahydro-1-naphthyl)-2-imidazoline, 4° C.; read-out: Ki (μM) mouse/rat. Put shortly:
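Competition binding on membranes from HEK293 cells stably expressing the TAAR1 species ortholog, in HEPES-NaOH pH 7.0 with 10 mM MgCl2 and 2 mM CaCl2, 30 min at 4° C with [3H]-rac-2-(1,2,3,4-tetrahydro-1-naphthyl)-2-imidazoline. Competitors 10 pM–30 μM, duplicates; non-specific binding with 10 μM unlabelled ligand; filtration and scintillation counting.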
For the molecule `NC1=N[C@@H](COc2ccc(F)cc2)CO1` [Example 213, (S)-4-(4-Fluoro-phenoxymethyl)-4,5-dihydro-oxazol-2-ylamine], the Ki came to 0.003 µM.

`C[C@]1(c2ccc(C(F)(F)F)cc2F)COC(N)=N1` [Example 215, (S)-4-(2-Fluoro-4-trifluoromethyl-phenyl)-4-methyl-4,5-dihydro-oxazol-2-ylamine]: the Ki was determined as 0.0024 µM.

On to `NC1=N[C@@H](COc2ccc(Cl)cc2)CO1` [Example 216, (S)-4-(4-Chloro-phenoxymethyl)-4,5-dihydro-oxazol-2-ylamine], for which the Ki is 0.002 µM.

Regarding `CC(C[C@H]1COC(N)=N1)c1ccccc1F` (stereo partly drawn) [Example 217, (S)-4-[2-(2-Fluoro-phenyl)-propyl]-4,5-dihydro-oxazol-2-ylamine], the Ki was found to be 0.0015 µM.

As for `C[C@]1(c2cccc(C(F)(F)F)c2)COC(N)=N1` [Example 219, (S)-4-Methyl-4-(3-trifluoromethyl-phenyl)-4,5-dihydro-oxazol-2-ylamine], the Ki was determined as 0.0009 µM.

For `Cc1cc(CC[C@H]2COC(N)=N2)ccn1` [Example 220, (S)-4-[2-(2-Methyl-pyridin-4-yl)-ethyl]-4,5-dihydro-oxazol-2-ylamine], the Ki came to 0.0084 µM.

As to `CC(C[C@H]1COC(N)=N1)c1ccc(Cl)c(Cl)c1` (stereo partly drawn) [Example 221, (S)-4-[2-(3,4-Dichloro-phenyl)-propyl]-4,5-dihydro-oxazol-2-ylamine], the Ki was 0.0022 µM.

Consider `CCC(C[C@H]1COC(N)=N1)c1ccc(Cl)c(Cl)c1` (stereo partly drawn) [Example 222, (S)-4-[2-(3,4-Dichloro-phenyl)-butyl]-4,5-dihydro-oxazol-2-ylamine], for which the Ki came to 0.0048 µM.

Consider `CCC(C[C@H]1COC(N)=N1)c1ccccc1F` (stereo partly drawn) [Example 223, (S)-4-[2-(2-Fluoro-phenyl)-butyl]-4,5-dihydro-oxazol-2-ylamine], for which the Ki was 0.0059 µM.

Consider `C[C@]1(CCc2ccccc2Cl)COC(N)=N1` [Example 228, (S)-4-[2-(2-Chloro-phenyl)-ethyl]-4-methyl-4,5-dihydro-oxazol-2-ylamine], for which the Ki worked out at 0.004 µM.

Regarding `C[C@]1(c2ccc(Br)cc2)COC(N)=N1` [Example 231, (S)-4-(4-Bromo-phenyl)-4-methyl-4,5-dihydro-oxazol-2-ylamine], the Ki was found to be 0.0025 µM.

For the molecule `NC1=N[C@@H](CCc2cccc(Cl)c2)CO1` [Example 232, (S)-4-[2-(3-Chloro-phenyl)-ethyl]-4,5-dihydro-oxazol-2-ylamine], the Ki was 0.0006 µM.

With `C[C@]1(c2ccc(Cl)c(F)c2)COC(N)=N1` [Example 236, (S)-4-(4-Chloro-3-fluoro-phenyl)-4-methyl-4,5-dihydro-oxazol-2-ylamine], the Ki stood at 0.002 µM.

`NC1=N[C@@H](c2ccc(Cl)cc2C(F)(F)F)CO1` [Example 238, (+)-(S)-4-(4-Chloro-2-trifluoromethyl-phenyl)-4,5-dihydro-oxazol-2-ylamine]: the Ki was 0.003 µM.

For the molecule `COc1ccc([C@H]2COC(N)=N2)c(C(F)(F)F)c1` [Example 240, (+)-(S)-4-(4-Methoxy-2-trifluoromethyl-phenyl)-4,5-dihydro-oxazol-2-ylamine], the Ki was 0.0032 µM.

Consider `NC1=N[C@@H](c2cc(Cl)c(Cl)cc2C(F)(F)F)CO1` [Example 242, (+)-(S)-4-(4,5-Dichloro-2-trifluoromethyl-phenyl)-4,5-dihydro-oxazol-2-ylamine], for which the Ki came out at 0.0072 µM.

Take `NC1=N[C@H](c2cc(Cl)c(Cl)cc2C(F)(F)F)CO1` [Example 243, (−)-(R)-4-(4,5-Dichloro-2-trifluoromethyl-phenyl)-4,5-dihydro-oxazol-2-ylamine]: the Ki was determined as 0.0094 µM.

Consider `C[C@]1(CCc2ccc(Cl)cc2)COC(N)=N1` [Example 244, (S)-4-[2-(4-Chloro-phenyl)-ethyl]-4-methyl-4,5-dihydro-oxazol-2-ylamine], for which the Ki turned out to be 0.0057 µM.

`C[C@]1(CCc2cccc(Cl)c2)COC(N)=N1` [Example 246, (S)-4-[2-(3-Chloro-phenyl)-ethyl]-4-methyl-4,5-dihydro-oxazol-2-ylamine]: the Ki worked out at 0.0055 µM.

Regarding `NC1=N[C@@H](c2ccc(F)cc2C(F)(F)F)CO1` [Example 248, (+)-(S)-4-(4-Fluoro-2-trifluoromethyl-phenyl)-4,5-dihydro-oxazol-2-ylamine], the Ki worked out at 0.0029 µM.

For `C[C@]1(CCc2ccc(F)cc2)COC(N)=N1` [Example 255, (S)-4-[2-(4-Fluoro-phenyl)-ethyl]-4-methyl-4,5-dihydro-oxazol-2-ylamine], the Ki came out at 0.0074 µM.

`NC1=N[C@@H](CCc2ccc(Cl)cc2)CO1` [Example 256, (S)-4-[2-(4-Chloro-phenyl)-ethyl]-4,5-dihydro-oxazol-2-ylamine]: the Ki amounted to 0.0006 µM.

On to `NC1=N[C@@H](CC2(c3ccc(Cl)cc3)CC2)CO1` [Example 257, (S)-4-[1-(4-Chloro-phenyl)-cyclopropylmethyl]-4,5-dihydro-oxazol-2-ylamine], for which the Ki came to 0.0074 µM.

Take `NC1=N[C@@H](c2cc(F)ccc2C(F)(F)F)CO1` [Example 259, (+)-(S)-4-(5-Fluoro-2-trifluoromethyl-phenyl)-4,5-dihydro-oxazol-2-ylamine]: the Ki worked out at 0.0088 µM.

Take `NC1=N[C@@H](c2ccccc2Br)CO1` [Example 265, (+)-(S)-4-(2-Bromo-phenyl)-4,5-dihydro-oxazol-2-ylamine]: the Ki came out at 0.0009 µM.

Take `C[C@]1(c2cc(F)cc(Cl)c2)COC(N)=N1` [Example 266, (S)-4-(3-Chloro-5-fluoro-phenyl)-4-methyl-4,5-dihydro-oxazol-2-ylamine]: the Ki was 0.0016 µM.

For `NC1=N[C@@H](CCc2ccccc2Cl)CO1` [Example 267, (S)-4-[2-(2-Chloro-phenyl)-ethyl]-4,5-dihydro-oxazol-2-ylamine], the Ki was determined as 0.0011 µM.

With `C[C@]1(c2cc(Cl)ccc2F)COC(N)=N1` [Example 270, (S)-4-(5-Chloro-2-fluoro-phenyl)-4-methyl-4,5-dihydro-oxazol-2-ylamine], the Ki turned out to be 0.0016 µM.

Consider `C[C@]1(c2ccc(F)c(Cl)c2)COC(N)=N1` [Example 277, (S)-4-(3-chloro-4-fluoro-phenyl)-4-methyl-4,5-dihydro-oxazol-2-ylamine], for which the Ki stood at 0.0016 µM.

Turning to `C[C@]1(c2cc(F)c(Cl)cc2F)COC(N)=N1` [Example 289, (S)-4-(4-Chloro-2,5-difluoro-phenyl)-4-methyl-4,5-dihydro-oxazol-2-ylamine], the Ki turned out to be 0.0017 µM.

Turning to `CC[C@@H](C[C@H]1COC(N)=N1)c1ccccc1` [Example 292, (S)-4-((S)-2-Phenyl-butyl)-4,5-dihydro-oxazol-2-ylamine], the Ki amounted to 0.0035 µM.

Turning to `CC[C@H](C[C@H]1COC(N)=N1)c1ccccc1` [Example 293, (S)-4-((R)-2-Phenyl-butyl)-4,5-dihydro-oxazol-2-ylamine], the Ki worked out at 0.0062 µM.

In the case of `NC1=N[C@H](c2ccc(Cl)cc2Cl)CO1` [Example 295, (−)-(R)-4-(2,4-Dichloro-phenyl)-4,5-dihydro-oxazol-2-ylamine], the Ki came out at 0.0082 µM.

`NC1=N[C@@H](c2ccc(Cl)cc2Cl)CO1` [Example 296, (+)-(S)-4-(2,4-Dichloro-phenyl)-4,5-dihydro-oxazol-2-ylamine]: the Ki worked out at 0.0004 µM.

As for `NC1=N[C@@H](c2cc(Cl)ccc2Cl)CO1` [Example 298, (+)-(S)-4-(2,5-Dichloro-phenyl)-4,5-dihydro-oxazol-2-ylamine], the Ki was 0.0004 µM.

In the case of `NC1=N[C@@H](c2ccc(F)c(F)c2F)CO1` [Example 301, (+)-(S)-4-(2,3,4-Trifluoro-phenyl)-4,5-dihydro-oxazol-2-ylamine], the Ki was found to be 0.0023 µM.

For `NC1=N[C@@H](CCc2c(F)cccc2Cl)CO1` [Example 303, (S)-4-[2-(2-Chloro-6-fluoro-phenyl)-ethyl]-4,5-dihydro-oxazol-2-ylamine], the Ki was determined as 0.0011 µM.

Take `C[C@]1(CCc2ccc(Cl)cc2Cl)COC(N)=N1` [Example 304, (S)-4-[2-(2,4-Dichloro-phenyl)-ethyl]-4-methyl-4,5-dihydro-oxazol-2-ylamine]: the Ki is 0.0033 µM.

With `C[C@]1(c2cc(F)c(F)c(F)c2)COC(N)=N1` [Example 306, (S)-4-Methyl-4-(3,4,5-trifluoro-phenyl)-4,5-dihydro-oxazol-2-ylamine], the Ki stood at 0.0027 µM.

`Cc1cc([C@@]2(C)COC(N)=N2)c(F)cc1Cl` [Example 308, (S)-4-(4-Chloro-2-fluoro-5-methyl-phenyl)-4-methyl-4,5-dihydro-oxazol-2-ylamine]: the Ki came out at 0.0009 µM.

In the case of `CC[C@]1(c2ccc(Cl)c(Cl)c2)COC(N)=N1` [Example 328, (S)-4-(3,4-Dichloro-phenyl)-4-ethyl-4,5-dihydro-oxazol-2-ylamine], the Ki is 0.0052 µM.

For the molecule `NC1=N[C@@H](c2ccc(Br)c(Cl)c2)CO1` [Example 330, (+)-(S)-4-(4-Bromo-3-chloro-phenyl)-4,5-dihydro-oxazol-2-ylamine], the Ki turned out to be 0.0008 µM.

Consider `NC1=N[C@@H](CCc2cc(Cl)ccc2Cl)CO1` [Example 333, (S)-4-[2-(2,5-Dichloro-phenyl)-ethyl]-4,5-dihydro-oxazol-2-ylamine], for which the Ki came out at 0.0021 µM.

As to `NC1=N[C@@H](c2ccc(Br)cc2C(F)(F)F)CO1` [Example 338, (+)-(S)-4-(4-Bromo-2-trifluoromethyl-phenyl)-4,5-dihydro-oxazol-2-ylamine], the Ki came out at 0.0031 µM.

As for `CCC(C[C@H]1COC(N)=N1)c1cccc(F)c1` (stereo partly drawn) [Example 340, (S)-4-[2-(3-Fluoro-phenyl)-butyl]-4,5-dihydro-oxazol-2-ylamine], the Ki was determined as 0.002 µM.

`NC1=N[C@@H](c2cc(Cl)ccc2C(F)(F)F)CO1` [Example 341, (+)-(S)-4-(5-Chloro-2-trifluoromethyl-phenyl)-4,5-dihydro-oxazol-2-ylamine]: the Ki worked out at 0.0046 µM.

As to `NC1=N[C@@H](CC2(c3ccccc3)CC2)CO1` [Example 342, (S)-4-(1-Phenyl-cyclopropylmethyl)-4,5-dihydro-oxazol-2-ylamine], the Ki turned out to be 0.0045 µM.
